The values below are quoted from earlier work in publication PMC11331742 (Military Medical Research, 2024).

One data set relates to MC2r. Set-up: method as in PMID 25140322.
Data set [1] concerns mouse model of acute lung injury. The text has this:
(§1) In addition, studies involving MC2r-independent agonists such as PT-141 could provide insight into cortisol-independent anti-inflammatory mechanisms.

The test system of another data set is preclinical models.
From the text: as §1

Regarding “α-melanocyte-stimulating hormone [α-MSH]”, in the data set on MC2r, the “affinity for MC2r” value was “minimal affinity”. In data set [1], the effect on inflammation entry was “reduced inflammation”.

`CCCC(=O)C1(c2ccccc2)CCN(C(=O)[C@@H](Cc2ccc(OC)cc2)NC(=O)[C@@H](N)Cc2cncn2C)CC1` [BMS-470539]: the anti-inflammatory effects entry in the data set with preclinical models is “promising anti-inflammatory effects”.
